Source: a melting point compilation (Tetko et al.; mined from patent text by program, amines drawn as free bases though some values may be those of a salt)

`COc1cccc(-c2cn(N=Cc3ccccc3)c(N)n2)c1` gave a melting point of 170 to 171 °C.
With `COc1cccc(NC(C)=O)c1C(=O)NC1CCN(C(C)CC(C(=O)N(C)C)(c2ccccc2)c2ccccc2)CC1O` (stereo not drawn) the melting point was 146 °C.
For `N#Cc1ccc(CC=O)cc1`, the melting point was 63 to 65 °C.
Work on `O=C(O)c1cc(NC(=O)C(CS)Cc2ccccc2)ccc1Cl` (stereo not drawn) yielded a melting point of 190 to 192 °C.
`O=C(O)C1CC(F)(F)CC1C(=O)O` (stereo not drawn) showed a melting point of 128 °C.
`CCOCCOCCn1ccc2c3c(c(-c4ccccc4Cl)cc21)C(=O)NC3=O` showed a melting point of 173 °C.
With `CN(Cc1ccc(CCC(=O)Nc2ccc(-c3ccc(Cl)cc3)cc2)cc1)C1CCOCC1` the melting point was 167 to 173 °C.
In the case of `OC1CCCc2c(-c3ccc4nc(-c5ccc(Cl)cc5)cn4c3)cccc21` (stereo not drawn), the melting point is reported as 218 to 220 °C.
`CCCn1cnc2c1c1nnc(-c3ccncc3)n1c(=O)n2CCC` showed a melting point of 194 to 199 °C.
Work on `O=C(Cc1ccc(-c2ccccc2)cc1)NCCc1ccc(OCc2ccccc2)c(OCc2ccccc2)c1` yielded a melting point of 142 to 144 °C.
Molecule `COC(=O)COc1ccc(C(=O)CN2CCN(c3ccncc3)CC2=O)cc1` has a melting point of 164 to 165 °C.
In the case of `CC(=O)NCc1ccc(CN2CCN(c3ccc(Cl)cn3)CC2)cc1`, the melting point is reported as 155 to 156 °C.
`COc1c(C)c(OC(=O)c2c(C)c(C)c(OCCCOc3ccc(F)cc3)c(C)c2OC)c(C)c(C)c1C(N)=O` showed a melting point of 146 to 149 °C.
`O=C(O)CCC(=NO)c1ccc(-c2ccc(F)cc2)cc1` gave a melting point of 152 to 153 °C.
`CS(=O)(=O)c1ccc(-n2nc(C(F)(F)F)cc2-c2ccc(-c3cscn3)c(F)c2)cc1` gave a melting point of 176 to 178 °C.
In the case of `CC(C)C[C@H](NC(=O)c1ccc2c(c1)Nc1ccccc1S2)C(=O)N[C@H]1CCOC1OC(=O)C(C)(C)C` (stereo partly drawn), the melting point is reported as 107 to 109 °C.
`O=C(c1cc(Cc2c[nH]cn2)ccc1O)N1CCCC1` gave a melting point of 96 to 98 °C.
In the case of `COc1ccc(Nc2nc(Cl)nc(NC3CCCCCC3)n2)cc1Cl`, the melting point is reported as 146 °C.
Molecule `Nn1c(C(F)(F)F)cc(=O)n(-c2cc(Oc3ncccc3[N+](=O)[O-])c(Cl)cc2F)c1=O` has a melting point of 90 to 96 °C.
For `Nc1cc(C(=O)Nc2ccc(F)cc2)ccc1OC(F)(F)F`, the melting point was 139 to 140 °C.
`Cc1cc(C(=O)O)c(NC(=O)C(C)C)s1` showed a melting point of 160 to 162 °C.
Molecule `CCC(C(=O)O)N(C(=O)c1cnn(-c2ccc(F)cc2)c1)c1ccc(OCC(C)(C)C)c(C#N)c1` (stereo not drawn) has a melting point of 153 to 155 °C.
For `C[C@H]1[C@@H](C(N)=O)CCN1c1ccc(C#N)c2ccccc12`, the melting point was 204 to 206 °C.
Work on `COc1cc(C)nc(Nc2ccc(Cl)cc2)n1` yielded a melting point of 101 to 103 °C.
`CCCC(C)(C)NC(=O)n1nc(C)n(N)c1=O` gave a melting point of 110 °C.
`CC(C)(C)c1cc(CCc2ccccc2NC(=O)N2CCN(c3ccccc3)CC2)cc(C(C)(C)C)c1O` showed a melting point of 155 to 156 °C.
For `CCCOc1ccc(C(=O)OC)cc1C(C)=O`, the melting point was 44 to 47 °C.
Molecule `O=C(O)C(Oc1ccc(Cl)c(C(F)(F)F)c1)c1ccc(Cl)cc1` (stereo not drawn) has a melting point of 132 °C.
With `COc1cc2c(Oc3cccc4[nH]ccc34)ncnc2cc1OCCCN1CCCCC1` the melting point was 80 to 82 °C.
Work on `CC(C)(C)c1cc(CN(c2cccnc2)S(=O)(=O)c2ccc(F)cc2)cc(C(C)(C)C)c1O` yielded a melting point of 137 to 138 °C.
Molecule `CC(C)C(=O)Nc1nc(Cl)c([N+](=O)[O-])c(Cl)n1` has a melting point of 166 to 169 °C.
With `O=S(=O)(CCCl)CCCS(=O)(=O)CCCl` the melting point was 142 to 146 °C.
`CC(C)N(C(=O)c1ccc(F)cc1)C1CCN(Cc2ccccc2)CC1` gave a melting point of 98 °C.
Molecule `CC(C)OC(=O)c1nnc2n1-c1ccc(Cl)cc1C(c1ccccc1Cl)=NC2` has a melting point of 229 to 230 °C.
Work on `CC1(C)CC[C@@H](C(=O)O)[C@@H]1SC(=O)c1ccccc1` (relative stereo) yielded a melting point of 131 °C.
For `CCCC(=O)c1cnc2c(OC)cccc2c1Nc1ccc(OC(=O)C(C)C)cc1C`, the melting point was 123 to 125 °C.
With `O=C1CN(CCCOc2ccc(NC(=O)c3cc(F)cc(N4CCCCC4)c3)c3ccccc23)CCN1` the melting point was 90 to 92 °C.
`CCOC(=O)c1cccc(C)c1S(=O)(=O)NC(=O)Nc1nc(OCC(F)(F)F)nc(N(C)C)n1` showed a melting point of 134 to 142 °C.
`COc1cc2c(cc1F)CC/C2=C\C#N` gave a melting point of 197 to 199 °C.
Work on `CCOC(=O)c1cccc(-c2nc(-c3cc(C)sc3C)cs2)c1` yielded a melting point of 115 to 116 °C.
`O=C(Nc1ccccc1C(=O)O)c1nnc(S)o1` gave a melting point of 236 to 237 °C.
In the case of `O=S(=O)(CCl)c1ccc(O)c(Cl)c1`, the melting point is reported as 108 °C.
Molecule `CC(C)(C)OC(=O)CS(=O)(=O)c1cccc(-c2nc(=O)c3ccccc3s2)n1` has a melting point of 159 to 160 °C.
Work on `O=C(CSc1nc2ccccc2s1)NC1(C(=O)O)Cc2ccc(-c3ccc(Cl)cc3)cc2C1` (stereo not drawn) yielded a melting point of 205 to 207 °C.
Molecule `N#Cc1cnc2cc(O)ccc2c1Nc1ccc(Cl)cc1F` has a melting point of 295 to 305 °C.
Work on `CN(C)S(=O)(=O)n1c(C(=S)NC(O)C(Cl)(Cl)Cl)nc2cc(Cl)c(Cl)cc21` (stereo not drawn) yielded a melting point of 158 to 160 °C.
With `N#Cc1nn(-c2c(Cl)cc(C(F)(F)F)cc2Cl)c(C(=O)C(F)F)c1Cl` the melting point was 124 to 125 °C.
Molecule `CCCOC(=O)Nc1ccc(NCc2cc(Cl)cc(Cl)c2)cc1N` has a melting point of 154 to 155 °C.
Molecule `CCc1noc(C)c1-c1[nH]c2ccccc2c1C(=O)C(=O)N(C)C` has a melting point of 212 to 215 °C.
For `NC(=O)c1sccc1S`, the melting point was 116 to 120 °C.
In the case of `Ic1cnc2c(c1)N(Cc1ccccc1)CCN2`, the melting point is reported as 147 to 148 °C.
With `O=c1[nH]c2ncc(-c3ccc(-c4nc[nH]n4)nc3)nc2n1CC1CCOCC1` the melting point was 353 to 356 °C.
`CCOC(C)c1ccc(OCCOc2ncnc(NS(=O)(=O)c3ccc(C(C)(C)C)cc3)c2-c2ccc(C)cc2)cc1` (stereo not drawn) showed a melting point of 139 to 140 °C.
For `Cc1cccc(S(=O)(=O)n2ccc(Br)c2)c1C#N`, the melting point was 98 to 100 °C.
`COc1ccccc1-c1ccc(C(=O)N2Cc3ccc(C(=O)NC(CO)c4ccccc4)n3Cc3ccccc32)cc1` (stereo not drawn) showed a melting point of 195 to 196 °C.
Molecule `COc1ccc(Nc2ccncc2)cc1` has a melting point of 129 to 134 °C.
For `Cc1c(NC(=O)c2ccc(-c3ccc(F)cc3)cc2)ccc2cc(CN3CCC(CC(=O)N(C)C)CC3)cnc12`, the melting point was 200 to 201 °C.
For `CCCCCCN(Cc1ccc(N(C)C)cc1)c1c(N[C@@H](Cc2ccccc2)C(=O)O)c(=O)c1=O`, the melting point was 77 to 80 °C.
With `COC12CC(C)(C)C(O)C(C=C1C)O2` (stereo not drawn) the melting point was 82.5 to 83.5 °C.
With `COc1cccc(-c2nc(-c3ccccc3)c3ncc(-c4cccc5ccccc45)cc3n2)c1` the melting point was 166 to 167 °C.
For `NS(=O)(=O)c1cc(N(CCCl)CCCl)c([N+](=O)[O-])cc1[N+](=O)[O-]`, the melting point was 153 to 154 °C.
In the case of `COC(=O)CCCc1cc2nc(Cl)ccc2n1S(=O)(=O)c1ccc(F)cc1`, the melting point is reported as 119 °C.
With `COc1ccc(C=C(C#N)c2ccccn2)cc1OC` the melting point was 112 °C.
Molecule `CCCCC(C(=O)OC)(C(=O)OC)c1nc(C)nc2c1c(SC)nn2-c1c(Cl)cc(Cl)cc1Cl` has a melting point of 146 to 152 °C.
`Oc1ccc2c(c1)OCC(c1cccc(C(F)(F)F)c1)C2c1ccc(OCCN2CCCCC2)cc1` (stereo not drawn) gave a melting point of 118 to 119 °C.
With `CCOCC1Cc2cc(S(=O)(=O)N(C)C)c(Cl)c(Cl)c2O1` (stereo not drawn) the melting point was 91 to 92 °C.
Work on `c1ccc(CNCCOc2ccc3ccccc3c2)cc1` yielded a melting point of 94 °C.
Work on `N#Cc1ccc(-c2nc(-c3ccc(F)cc3)c(-c3ccnc4ccccc34)[nH]2)cc1` yielded a melting point of 294 to 295 °C.
`Cc1c(C)c2c(c(C)c1OCc1ccncc1)C(c1ccc(C(C)C)cc1)C1(CCN(C)CC1)O2` (stereo not drawn) showed a melting point of 96 to 98 °C.
`CCOC(=O)NC(=N)c1ccc(-n2cc(C)n(-c3ccc(CCC(=O)OC)cc3)c2=O)cc1` showed a melting point of 198 to 199 °C.
With `Nc1cc(CCC(=O)CCc2ccc(O)c(N)c2)ccc1O` the melting point was 131 to 133 °C.
`CN(C)CCc1c[nH]c2ccc(C(N)=S)cc12` gave a melting point of 155 °C.
Work on `COc1ccccc1COc1ccc(S(=O)(=O)c2ccc(C)nc2Nc2ccc(OC(F)F)cc2Cl)cc1` yielded a melting point of 124 to 125 °C.
`CCC(=O)NCCC1CCc2cc(Br)c3c(c21)CC(C)(C)O3` (stereo not drawn) showed a melting point of 98 to 101 °C.
Work on `COc1cccc(C=O)c1OC(C)=O` yielded a melting point of 75.4 to 76.2 °C.
Work on `CCCCOCCCCCCCCCCC(=O)O` yielded a melting point of 29 to 30.5 °C.
In the case of `CC(C)(C)OC(=O)NCc1cc(C(C)(C)C)cc(I)c1O`, the melting point is reported as 196 to 197 °C.
For `Cc1ccc(NS(=O)(=O)Cc2ccccc2)c(OCc2ccccc2)c1CC(=O)O`, the melting point was 132 to 134 °C.
For `NS(=O)(=O)c1cc2ccccc2n1S(=O)(=O)c1ccccc1`, the melting point was 199 to 200 °C.
Molecule `Cc1cccc(NC(=O)NCC(=O)N(c2ccccc2)C(C(=O)OC(C)(C)C)c2ccccc2Cl)c1` (racemic) has a melting point of 181 °C.
For `COc1cc2ncnc(N3CCN(C(=O)NCc4ccc(C(C)C)cc4)CC3)c2cc1OC`, the melting point was 135 to 136 °C.
For `COc1cc(C=CC(C)=O)ccc1OCC1CO1` (stereo not drawn), the melting point was 123 to 124 °C.
With `O=C(O)C(=O)CC(=O)c1ccn(Cc2ccccc2)c1` the melting point was 151 to 152 °C.
Work on `N#Cc1cccc2c1ccn2-c1ncc(C(F)(F)F)cc1Cl` yielded a melting point of 109 to 111 °C.
`O=C(Nc1ccccc1)O[C@@H]1CN=C(c2ccc3ccccc3c2)O[C@H]1c1ccccc1` (racemic) showed a melting point of 163 °C.
With `CC(=O)c1c(C)oc(-c2ccncc2)c1C` the melting point was 65 to 66.5 °C.
For `CCC1(CCCN2CCN(c3ccccn3)CC2)C(=O)Nc2ccccc21` (stereo not drawn), the melting point was 122 to 124 °C.
In the case of `COc1ccc(-c2ocnc2-c2cc(OC)c(OC(F)(F)F)c(OC)c2)cc1N`, the melting point is reported as 168 to 170 °C.
`COC(=O)C1(C)Oc2ccc(Cl)cc2C(C)(c2ccccc2)O1` (stereo not drawn) gave a melting point of 134 °C.
`CCCOc1c2cc(F)c(F)cc2nc2c1c(C)nn2-c1ccccn1` gave a melting point of 162 to 163 °C.
For `CC(=Cc1ccc(C(C)(C)C)cc1)C(=O)NC(C)c1ccc(NS(C)(=O)=O)c(F)c1` (stereo not drawn), the melting point was 92 to 94 °C.
`O=C(Cc1cccc(C(F)(F)F)c1)NCc1cccc2c1C(=O)N(C1CCC(=O)NC1=O)C2=O` (stereo not drawn) showed a melting point of 156 to 158 °C.
`CCN(C=O)C1CCC(CNc2nc3c(s2)CCOc2ccccc2-3)CC1` (stereo not drawn) gave a melting point of 210 to 213 °C.
Work on `O=C1Nc2c(F)cc(F)cc2C1=O` yielded a melting point of 188 to 194 °C.
`N#Cc1ccc(CCN2CCC(NC(=O)C34CC5CC(CC(C5)C3)C4)C2)cc1` (stereo not drawn) showed a melting point of 104 to 105 °C.
For `CC(C)NCC(O)COc1ccc2nc3[nH]c(=O)[nH]c3cc2c1` (stereo not drawn), the melting point was 262 to 264 °C.
Work on `C#CCNC(=C[N+](=O)[O-])NCCSCc1nccs1` yielded a melting point of 121 to 123 °C.
`OC(c1ccccc1)C(NCc1ccco1)c1ccccc1` (stereo not drawn) gave a melting point of 141 to 144 °C.
